Assay results: the NIST ThermoML archive (doi:10.1021/je7001122)
“And” between values parts separate entries of the source, which are not always exact repeats. Equal entries are not always repeated. Numbers after ± are expanded uncertainties.

Details: Liquid

CCCCCCCCCC [decane]
Transpiration method
Details | vapor or sublimation pressure [kPa]
323.94 K | 0.9556 ± 0.054
353.57 K | 4.252 ± 0.22
373.15 K | 10.05 ± 0.52
402.36 K | 29.48 ± 1.5
402.48 K | 29.36 ± 1.5

CCCCCCCCCCCCCCCCCCCCCCCC [tetracosane]
vapor or sublimation pressure
Details | Diaphragm manometer | Transpiration method
333.46 K | – | 4.3e-06 ± 5e-07 kPa
353.43 K | – | 4.35e-05 ± 2.4e-06 kPa
353.97 K | – | 4.5e-05 ± 2.5e-06 kPa
373.17 K | 0.000296 ± 2.1e-05 kPa | 0.000307 ± 1.6e-05 kPa
373.61 K | 0.000322 ± 2.2e-05 kPa | 0.000316 ± 1.7e-05 kPa
379.15 K | 0.000531 ± 2.8e-05 kPa | 0.000524 ± 3.1e-05 kPa
393.2 K | 0.001727 ± 5.9e-05 kPa | 0.001725 ± 9e-05 kPa and 0.001721 ± 9e-05 kPa
397.55 K | 0.002432 ± 0.0001 kPa | 0.002406 ± 0.00014 kPa
414.68 K | 0.008547 ± 0.00027 kPa | 0.00843 ± 0.00045 kPa
417.75 K | 0.01055 ± 0.00032 kPa | 0.0105 ± 0.00055 kPa
433.1 K | 0.02857 ± 0.0009 kPa | –
452.6 K | 0.08931 ± 0.0025 kPa | –

CCCCCCCCCCCCCCCCCCCCCCCCCCCC [octacosane]
Transpiration method
Details | vapor or sublimation pressure
354.01 K | 2.14e-06 ± 2.6e-07 kPa
373.92 K | 1.77e-05 ± 1.2e-06 kPa and 1.8e-05 ± 1.2e-06 kPa
393.65 K | 0.000122 ± 7e-06 kPa and 0.000126 ± 7e-06 kPa
413.5 K | 0.000633 ± 3.5e-05 kPa and 0.000651 ± 3.6e-05 kPa and 0.00063 ± 3.5e-05 kPa
433.32 K | 0.00293 ± 0.00016 kPa
453.28 K | 0.01264 ± 0.00068 kPa
473.64 K | 0.04404 ± 0.0024 kPa
494.8 K | 0.1554 ± 0.0081 kPa
516.89 K | 0.4272 ± 0.05 kPa
